For data set [1], the system named is Atrial natriuretic factor (ANF) expression, P19 cells. Description: ANF test (ANF promoter luciferase reporter) in P19 cells. It counts as cell-based, murine. Also noted: key to Evaluation (luminescence in relation to the blank): −: decrease of luminescence compared to the blank value; +: measurable increase; ++: at least 1.5-fold increase; +++: at least 2-fold increase. To be noted: for ANF expression level / efficiency, stated in words: ANF test, P19 cells (DTAB and summary statements also cover C2C12). The text has this: Atrial natriuretic factor (ANF) or atrial natriuretic peptide (ANP) is a cyclic peptide hormone made up of 28 amino acids, which is predominantly emitted by the muscle cells (myocytes) of the atrium of the heart. It is stored in the atrium as a pro-hormone made of 126 amino acids and is cleaved by serine protease corine into an N-terminal part and the biologically active ANF, which is often used as a cardiac-specific marker protein. In cell differentiation measurements, i.e. in determining the extent to which certain cells have become “cardiac cell-like” by differentiation, often a reporter gene located downstream of the ANF gene is used, as it expression product is easier to detect than the concentration of ANF in a cellular culture, for example, a luciferase gene. Luciferase in an enzyme which catalyzes the oxidation of a luminescent substrate (luciferine). While that happens, light is emitted, and the intensity of that light is correlated with the expression level of ANF and can therefore serve as a measure of ANF expression.
Initial attempts of ANF expression screenings were performed with P19 cells, i.e. murine embryonal carcinoma cells obtained from the ATCC, or C2C12 cells, i.e. a murine myoblast cell line, as models. In preparation, a plasmid was first constructed by amplifying a gene fragment containing a rat ANF promoter region and subcloning it into the PCL3-BV luciferase reporter plasmid of Promega. The P19 cells were temporarily transfected with said plasmid and cultured in Modified Eagle's Medium alpha (MEM-α) with 7.5% neonatal calf serum and 2.5% fetal bovine serum at 37° C. under 5% CO2 in monolayers for 8 days, during which the medium was exchanged three times. The respective compounds were added at about 60% confluence in DMSO as solvents at a concentration of 1 μM or DMSO alone (as a blank). The luminescence of the samples was measured with a Perkin Elmer Victor V 1420 Multilabel Counter. Their increase or decrease in the presence of the compounds of formula (I) is given in Table 1 below in relation to the blank.
The evaluations have the following meanings: • − decrease of luminescence compared to the blank value; • + measurable increase; • ++ at least 1.5-fold increase; • +++ at least 2-fold increase; • * represents C2C12 cells; and • ** represents P19 cells.

The mark [2] stands for this setting: P19 cells (**), compound 1 μM in DMSO, 8 days culture, relative to DMSO blank.

By melting point is commonly meant the temperature, or range, at which the solid turns liquid.

As to `CCNc1nc(Cl)nc(Nc2ccc(OC)cc2)n1` [(3), 6-chloro-N2-ethyl-N4-(4-methoxyphenyl)-1,3,5-triazin-2.4-diamine], the melting point was 174 to 176 °C. In addition, in data set [1], the “ANF expression level / efficiency, stated in words” value is “the poorest measurement results among all compounds”. For the same compound, the “Evaluation (luminescence in relation to the blank)” value (“Evaluation” below) in data set [1] (setting [2]) is given as “−**”.

`COc1ccc(Nc2ncnc(NCCO)n2)cc1` [(4), 2-[4-(4-methoxyphenylamino)-1,3,5-triazin-2-ylamino]ethanol] came in with a melting point of 160 to 164 °C. Moreover, in data set [1], the “ANF expression level / efficiency, stated in words” value is “the poorest measurement results among all compounds”. Further, in data set [1] (setting [2]), the “Evaluation” value is recorded as “−**”.

For `CCOC(=O)c1ccc(Nc2nc(Oc3ccccc3)nc(Oc3ccccc3)n2)cc1` [(5), 4-[(4.6-diphenoxy-1,3,5-triazin-2-yl)amino]benzoic acid ethyl ester], the melting point fell in the range of 159 to 161 °C. In addition, the “Evaluation” value in data set [1] (setting [2]) is “−**”.

As to `COC(=O)c1cccc(Nc2nc(Oc3ccccc3)nc(Oc3ccccc3)n2)c1` [(6), 3-[(4.6-diphenoxy-1,3,5-triazin-2-yl)amino]benzoic acid methyl ester], the melting point is 198 to 199.5 °C.

In turn, `COC(=O)c1cccc(Nc2nc(Oc3ccccc3)nc(Oc3ccc(Cl)cc3)n2)c1` [(7), 3-{[4-(4-chlorophenoxy)-6-phenoxy-1,3,5-triazin-2-yl]amino}benzoic acid methyl ester] gave a melting point of 186.5 to 188 °C. In addition, the “Evaluation” value in data set [1] (setting [2]) was “−**”.

The compound `COC(=O)c1cccc(Nc2nc(Oc3ccccc3)nc(Oc3cccc(Cl)c3)n2)c1` [(8), 3-{[4-(3-chlorophenoxy)-6-phenoxy-1,3,5-triazin-2-yl]amino}benzoic acid methyl ester] registered a melting point of 151.5 to 156 °C. In addition, the fold induction at 1 µM in data set [1] (Mus musculus, 192 h, P19 cells (**), compound 1 μM in DMSO, 8 days culture, relative to DMSO blank, read-out: Evaluation (luminescence in relation to the blank)) is at least 1.5.

Turning to `COC(=O)c1cccc(Nc2nc(Oc3ccccc3)nc(Oc3ccccc3Cl)n2)c1` [(9), 3-{[4-(2-chlorophenoxy)-6-phenoxy-1,3,5-triazin-2-yl]amino}benzoic acid methyl ester], the melting point was 139 to 141.5 °C. For the same compound, the “Evaluation” value in data set [1] (setting [2]) is “−**”.

Consider `COC(=O)c1cccc(Nc2nc(Oc3ccccc3)nc(Oc3ccc(C(C)(C)C)cc3)n2)c1` [(10), 3-{[4-(4-t-butylphenoxy)-6-phenoxy-1,3,5-triazin-2-yl]amino}benzoic acid methyl ester], for which the melting point fell in the range of 85 to 86 °C. Besides, the “Evaluation” value in data set [1] (setting [2]) is “−**”.

`COC(=O)c1cccc(Nc2nc(Oc3ccccc3)nc(Oc3ccc(OC)cc3)n2)c1` [(11), 3-{[4-(4-methoxyphenoxy)-6-phenoxy-1,3,5-triazin-2-yl]amino}benzoic acid methyl ester] showed a melting point of 56 to 60 °C. For the same compound, the “Evaluation” value in data set [1] (setting [2]) was “−**”.

Take `COC(=O)c1cccc(Nc2nc(Oc3ccccc3)nc(Oc3cccc([N+](=O)[O-])c3)n2)c1` [(13), 3-{[4-(3-nitrophenoxy)-6-phenoxy-1,3,5-triazin-2-yl]amino}benzoic acid methyl ester]: the “Evaluation” value in data set [1] (setting [2]) is on record as “−**”.

`COC(=O)c1cccc(Nc2nc(Oc3ccc(OC)cc3)nc(Oc3ccc(C=O)cc3OC)n2)c1` [(15), 3-{[4-(4-formyl-2-methoxyphenoxy)-6-(4-methoxyphenoxy)-1,3,5-triazin-2-yl]amino}benzoic acid methyl ester] registered a melting point of 79 to 82 °C.

As for `COC(=O)c1cccc(Nc2nc(Oc3ccc(OC)cc3)nc(Oc3ccc(Br)cc3C=O)n2)c1` [(16), 3-{[4-(4-bromo-2-formylphenoxy)-6-(4-methoxyphenoxy)-1,3,5-triazin-2-yl]amino}benzoic acid methyl ester], the melting point amounted to 180 °C.

`COC(=O)c1cccc(Nc2nc(Oc3ccc(C#N)cc3)nc(Oc3ccc(OC)cc3)n2)c1` [(17), 3-{[4-(4-cyanophenoxy)-6-(4-methoxyphenoxy)-1,3,5-triazin-2-yl]-amino}benzoic acid methyl ester] registered a melting point of 132 to 134.5 °C.

In the case of `CC(C)(C)OC(=O)c1cccc(Nc2nc(Oc3ccccc3)nc(Oc3ccccc3)n2)c1` [(18), 3-[(4.6-diphenoxy-1,3,5-triazin-2-yl)amino]benzoic acid t-butyl ester], the melting point lay within 208 to 209 °C.

As to `CC(C)(C)OC(=O)c1cccc(Nc2nc(Oc3ccccc3)nc(Oc3ccc(Cl)cc3)n2)c1` [(19), 3-{[4-(4-chlorophenoxy)-6-phenoxy-1,3,5-triazin-2-yl]amino}benzoic acid t-butyl ester], the melting point lay within 172.5 to 174 °C.

The compound `CC(C)(C)OC(=O)c1cccc(Nc2nc(Oc3ccccc3)nc(Oc3cccc(Cl)c3)n2)c1` [(20), 3-{[4-(3-chlorophenoxy)-6-phenoxy-1,3,5-triazin-2-yl]amino}benzoic acid t-butyl ester] returned a melting point of 187.5 to 190.5 °C.

Consider `CC(C)(C)OC(=O)c1cccc(Nc2nc(Oc3ccccc3)nc(Oc3ccccc3Cl)n2)c1` [(21), 3-{[4-(2-chlorophenoxy)-6-phenoxy-1,3,5-triazin-2-yl]amino}benzoic acid t-butyl ester], for which the melting point was in the range of 191 to 192 °C.

In turn, `CC(C)(C)OC(=O)c1cccc(Nc2nc(Oc3ccccc3)nc(Oc3ccc(C(C)(C)C)cc3)n2)c1` [(22), 3-{[4-(4-t-butylphenoxy)-6-phenoxy-1,3,5-triazin-2-yl]amino}benzoic acid t-butyl ester] gave a melting point of 139 to 141 °C.

In turn, `COc1ccc(Oc2nc(Nc3cccc(C(=O)OC(C)(C)C)c3)nc(Oc3ccccc3)n2)cc1` [(23), 3-{[4-(4-methoxyphenoxy)-6-phenoxy-1,3,5-triazin-2-yl]amino}benzoic acid t-butyl ester] had a melting point of 68 to 70 °C.

The compound `CC(C)(C)OC(=O)c1cccc(Nc2nc(Oc3ccccc3)nc(Oc3ccc(C#N)cc3)n2)c1` [(24), 3-{[4-(4-cyanophenoxy)-6-phenoxy-1,3,5-triazin-2-yl]amino}benzoic acid t-butyl ester] came in with a melting point of 176.5 to 178.5 °C.

Regarding `CC(C)(C)OC(=O)c1cccc(Nc2nc(Oc3ccccc3)nc(Oc3cccc([N+](=O)[O-])c3)n2)c1` [(25), 3-{[4-(3-nitrophenoxy)-6-phenoxy-1,3,5-triazin-2-yl]amino}benzoic acid t-butyl ester], the melting point was 137 to 148 °C.

`COc1cc(C=O)ccc1Oc1nc(Nc2cccc(C(=O)OC(C)(C)C)c2)nc(Oc2ccccc2)n1` [(26), 3-{[4-(4-formyl-2-methoxyphenoxy)-6-phenoxy-1,3,5-triazin-2-yl]-amino}benzoic acid t-butyl ester] gave a melting point of 76 to 79 °C.

Consider `COc1ccc(Oc2nc(Nc3cccc(C(=O)OC(C)(C)C)c3)nc(Oc3ccc(C=O)cc3OC)n2)cc1` [(27), 3-{[4-(4-formyl-2-methoxyphenoxy)-6-(4-methoxyphenoxy)-1,3,5-triazin-2-yl]amino}benzoic acid t-butyl ester], for which the melting point lay within 88 to 106 °C.

`COc1ccc(Oc2nc(Nc3cccc(C(=O)OC(C)(C)C)c3)nc(Oc3ccc(C#N)cc3)n2)cc1` [(28), 3-{[4-(4-cyanophenoxy)-6-(4-methoxyphenoxy)-1,3,5-triazin-2-yl]-amino}benzoic acid t-butyl ester] showed a melting point of 161 to 164 °C.

The compound `COc1ccc(Oc2nc(Nc3cccc(C(=O)O)c3)nc(Oc3ccc(C=O)cc3OC)n2)cc1` [(37), 3-{[4-(4-formyl-2-methoxyphenoxy)-6-(4-methoxyphenoxy)-1,3,5-triazin-2-yl]amino}benzoic acid] showed a melting point of 180 to 182 °C.

`OCc1cccc(Nc2nc(Oc3ccccc3)nc(Oc3cccc(Cl)c3)n2)c1` [(42), {3-[(4-(3-chlorophenoxy)-6-phenoxy-1,3,5-triazin-2-yl)amino]phenyl}-methanol]: the “Evaluation” value in data set [1] (setting [2]) was “+** and (42) (m-chloro): +”.

On to `COc1ccc(Oc2nc(Nc3cccc(CO)c3)nc(Oc3ccccc3)n2)cc1` [(45), {3-[(4-(4-methoxyphenoxy)-6-phenoxy-1,3,5-triazin-2-yl)amino]-phenyl}methanol], for which the “Evaluation” value in data set [1] (setting [2]) was “+**”.
